≈ marks a conversion by molar mass, not a printed value. Blank lines part the entries; values can stand above or below the compound they belong to.
Columns and labels:
hERG (KCNH2) = hERG (KCNH2) (Homo sapiens, UniProt Q12809); test: Displacement of [3H]dofetilide from human ERG expressed in HEK293 cells at 10 uM
Dipeptidyl peptidase 2 = Dipeptidyl peptidase 2 (Homo sapiens, UniProt Q9UHL4); test: Inhibition of human recombinant DPP2
Dipeptidyl peptidase 8 = Dipeptidyl peptidase 8 (Homo sapiens, UniProt Q6V1X1); test: Inhibition of human recombinant DPP8
Sequence of Dipeptidyl peptidase 8 (Q6V1X1 whole entry): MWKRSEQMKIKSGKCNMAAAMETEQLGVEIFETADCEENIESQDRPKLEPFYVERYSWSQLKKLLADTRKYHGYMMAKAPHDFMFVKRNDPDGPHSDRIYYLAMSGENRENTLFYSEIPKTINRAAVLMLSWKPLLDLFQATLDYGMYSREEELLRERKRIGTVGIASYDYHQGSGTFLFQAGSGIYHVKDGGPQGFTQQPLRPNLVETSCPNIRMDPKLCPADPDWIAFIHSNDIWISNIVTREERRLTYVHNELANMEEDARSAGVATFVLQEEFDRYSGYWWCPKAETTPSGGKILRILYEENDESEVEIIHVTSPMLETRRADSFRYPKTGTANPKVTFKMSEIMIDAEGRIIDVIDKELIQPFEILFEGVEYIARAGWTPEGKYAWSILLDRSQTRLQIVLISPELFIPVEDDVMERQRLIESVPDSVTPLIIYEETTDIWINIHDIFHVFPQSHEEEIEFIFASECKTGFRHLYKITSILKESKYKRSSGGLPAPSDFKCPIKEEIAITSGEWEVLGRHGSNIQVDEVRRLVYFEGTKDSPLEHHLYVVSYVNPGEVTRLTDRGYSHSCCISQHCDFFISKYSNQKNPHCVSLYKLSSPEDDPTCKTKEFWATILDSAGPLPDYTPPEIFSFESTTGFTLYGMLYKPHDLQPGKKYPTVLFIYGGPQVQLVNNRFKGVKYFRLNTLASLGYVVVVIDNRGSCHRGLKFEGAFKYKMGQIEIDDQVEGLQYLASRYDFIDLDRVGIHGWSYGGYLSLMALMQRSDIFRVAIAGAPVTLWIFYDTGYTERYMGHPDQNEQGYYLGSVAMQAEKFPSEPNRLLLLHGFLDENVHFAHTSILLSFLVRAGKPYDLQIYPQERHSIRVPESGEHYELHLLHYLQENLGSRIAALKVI

[1] = Volume of distribution at steady state in Sprague-Dawley rat at 1 mg/kg, iv and 5 mg/kg, po; settings: in vivo
in vivo [2] = settings: Sprague-Dawley, rat, po, 5 mg/kg
Description: Cmax in Sprague-Dawley rat at 5 mg/kg, po

[3] = Half life in Sprague-Dawley rat at 1 mg/kg, iv and 5 mg/kg, po; settings: in vivo
[4] = Bioavailability in Sprague-Dawley rat at 1 mg/kg, iv and 5 mg/kg, po; settings: in vivo
in vivo [5] = settings: Sprague-Dawley, rat, plasma, po, 5 mg/kg
Description: AUC in Sprague-Dawley rat at 5 mg/kg, po

[6] = Clearance in Sprague-Dawley rat plasma at 1 mg/kg, iv and 5 mg/kg, po
[7] = biological target: Voltage-gated inwardly rectifying potassium channel KCNH2 (Homo sapiens, UniProt Q12809); test: Inhibition of human ERG by patch-clamp technique
Sequence of Voltage-gated inwardly rectifying potassium channel KCNH2 (Q12809 whole entry): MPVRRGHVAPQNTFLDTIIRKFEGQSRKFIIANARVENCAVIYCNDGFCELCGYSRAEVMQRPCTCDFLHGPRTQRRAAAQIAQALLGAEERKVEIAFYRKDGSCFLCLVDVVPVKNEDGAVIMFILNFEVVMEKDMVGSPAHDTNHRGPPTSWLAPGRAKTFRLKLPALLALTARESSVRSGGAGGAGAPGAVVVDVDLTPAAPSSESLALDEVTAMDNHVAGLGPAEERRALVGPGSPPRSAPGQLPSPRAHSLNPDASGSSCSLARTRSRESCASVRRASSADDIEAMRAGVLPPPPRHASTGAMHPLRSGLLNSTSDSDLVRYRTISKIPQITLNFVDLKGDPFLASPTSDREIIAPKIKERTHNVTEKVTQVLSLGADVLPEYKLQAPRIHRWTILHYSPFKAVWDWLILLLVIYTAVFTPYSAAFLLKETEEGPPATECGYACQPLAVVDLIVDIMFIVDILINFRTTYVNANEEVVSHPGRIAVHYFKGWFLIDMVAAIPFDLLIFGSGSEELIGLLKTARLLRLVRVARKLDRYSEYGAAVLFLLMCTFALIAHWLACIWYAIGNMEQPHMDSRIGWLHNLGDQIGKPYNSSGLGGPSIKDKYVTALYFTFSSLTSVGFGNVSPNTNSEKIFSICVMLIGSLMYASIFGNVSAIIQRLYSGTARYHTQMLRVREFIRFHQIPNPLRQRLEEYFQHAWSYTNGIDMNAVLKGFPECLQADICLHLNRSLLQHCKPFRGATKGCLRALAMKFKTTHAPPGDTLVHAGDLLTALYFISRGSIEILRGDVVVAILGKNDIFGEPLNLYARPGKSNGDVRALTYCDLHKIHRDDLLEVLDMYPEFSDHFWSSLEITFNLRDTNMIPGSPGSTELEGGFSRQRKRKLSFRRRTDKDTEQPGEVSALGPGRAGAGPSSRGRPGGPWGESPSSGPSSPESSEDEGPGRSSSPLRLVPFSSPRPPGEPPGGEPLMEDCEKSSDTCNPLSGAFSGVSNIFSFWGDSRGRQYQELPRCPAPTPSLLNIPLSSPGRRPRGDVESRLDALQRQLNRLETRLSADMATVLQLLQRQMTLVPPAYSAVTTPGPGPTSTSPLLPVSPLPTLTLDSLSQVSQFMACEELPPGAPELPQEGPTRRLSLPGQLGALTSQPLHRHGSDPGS

[8] = Apparent permeability from apical to basolateral side in MDCK cells; settings: dog
[9] = Apparent permeability from basolateral to apical side in MDCK cells; settings: dog
Cytochrome P450 2D6 = Cytochrome P450 2D6 (Homo sapiens, UniProt P10635); test: Inhibition of CYP2D6; format: ADME
Sequence of Cytochrome P450 2D6 (P10635 whole entry): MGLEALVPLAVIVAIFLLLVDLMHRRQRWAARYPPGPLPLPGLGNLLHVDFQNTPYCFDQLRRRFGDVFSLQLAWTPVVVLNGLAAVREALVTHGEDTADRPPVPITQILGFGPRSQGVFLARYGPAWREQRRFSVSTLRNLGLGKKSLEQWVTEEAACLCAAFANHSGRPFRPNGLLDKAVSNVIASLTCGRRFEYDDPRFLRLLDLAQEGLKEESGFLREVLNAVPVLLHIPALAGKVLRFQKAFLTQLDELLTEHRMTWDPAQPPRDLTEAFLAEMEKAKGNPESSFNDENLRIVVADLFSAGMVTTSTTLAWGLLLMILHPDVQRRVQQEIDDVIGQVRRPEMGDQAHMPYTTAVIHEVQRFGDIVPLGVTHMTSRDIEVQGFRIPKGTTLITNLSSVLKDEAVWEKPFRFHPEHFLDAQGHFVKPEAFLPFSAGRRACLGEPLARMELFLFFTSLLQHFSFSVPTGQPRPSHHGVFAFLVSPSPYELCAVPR

[10] = AUC in cynomolgus monkey at 1 mg/kg, po; format: ADME, organism-based, Macaca fascicularis; set-up: dose 1 mg/kg, route oral; settings: plasma
Rattus norvegicus = species: Rattus norvegicus; test: Ex vivo inhibition of DPP4 in Sprague-Dawley rat; format: functional, organism-based
Cytochrome P450 2C19 = Cytochrome P450 2C19 (Homo sapiens, UniProt P33261); test: Inhibition of CYP2C19; format: ADME
Cytochrome P450 3A4 = Cytochrome P450 3A4 (Homo sapiens, UniProt P08684); test: Inhibition of CYP3A4; format: ADME
Sequence of Cytochrome P450 3A4 (P08684 whole entry): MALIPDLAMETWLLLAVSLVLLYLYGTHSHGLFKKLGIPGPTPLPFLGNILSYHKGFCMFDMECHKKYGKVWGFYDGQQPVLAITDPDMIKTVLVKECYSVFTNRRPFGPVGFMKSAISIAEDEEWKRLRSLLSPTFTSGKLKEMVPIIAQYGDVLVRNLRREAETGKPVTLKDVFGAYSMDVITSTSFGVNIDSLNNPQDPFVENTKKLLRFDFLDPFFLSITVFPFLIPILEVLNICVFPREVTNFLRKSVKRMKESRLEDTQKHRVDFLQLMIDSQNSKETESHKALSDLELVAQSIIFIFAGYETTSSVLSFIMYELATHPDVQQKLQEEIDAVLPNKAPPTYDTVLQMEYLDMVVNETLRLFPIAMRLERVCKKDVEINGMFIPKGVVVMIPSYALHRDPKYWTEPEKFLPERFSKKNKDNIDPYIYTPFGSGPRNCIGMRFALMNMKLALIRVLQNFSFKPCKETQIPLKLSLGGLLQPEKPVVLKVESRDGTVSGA

[11] = Fraction unbound in rat; format: ADME
[12] = Half life in cynomolgus monkey at 1 mg/kg, iv and 1 mg/kg, po; format: ADME, organism-based, Macaca fascicularis; settings: in vivo
[13] = Fraction unbound in monkey; format: ADME, Macaca mulatta; settings: rhesus monkey
[14] = Tmax in human at 0.3 to 300 mg; format: ADME, organism-based; settings: in vivo
[15] = Volume of distribution at steady state in dog at 1 mg/kg, iv and 1 mg/kg, po; format: ADME, organism-based, Canis lupus familiaris; settings: in vivo, read-out: Vdss
[16] = Cmax in dog at 1 mg/kg, po; format: ADME, organism-based, Canis lupus familiaris; set-up: dose 1 mg/kg, route oral; settings: in vivo
[17] = Volume of distribution at steady state in cynomolgus monkey at 1 mg/kg, iv and 1 mg/kg, po; format: ADME, organism-based, Macaca fascicularis; settings: in vivo, read-out: Vdss
[18] = Cmax in cynomolgus monkey at 1 mg/kg, po; format: ADME, organism-based, Macaca fascicularis; set-up: dose 1 mg/kg, route oral; settings: in vivo
[19] = Half life in dog at 1 mg/kg, iv and 1 mg/kg, po; format: ADME, organism-based, Canis lupus familiaris; settings: in vivo
[20] = Bioavailability in dog at 1 mg/kg, iv and 1 mg/kg, po; format: ADME, organism-based, Canis lupus familiaris; settings: in vivo
[21] = Bioavailability in cynomolgus monkey at 1 mg/kg, iv and 1 mg/kg, po; format: ADME, organism-based, Macaca fascicularis; settings: in vivo
[22] = AUC in dog at 1 mg/kg, po; format: ADME, organism-based, Canis lupus familiaris; set-up: dose 1 mg/kg, route oral; settings: plasma
[23] = Clearance in cynomolgus monkey plasma at 1 mg/kg, iv and 1 mg/kg, po; format: ADME, organism-based, Macaca fascicularis
Cytochrome P450 2C9 = Cytochrome P450 2C9 (Homo sapiens, UniProt P11712); test: Inhibition of CYP2C9; format: ADME
Sequence of Cytochrome P450 2C9 (P11712 whole entry): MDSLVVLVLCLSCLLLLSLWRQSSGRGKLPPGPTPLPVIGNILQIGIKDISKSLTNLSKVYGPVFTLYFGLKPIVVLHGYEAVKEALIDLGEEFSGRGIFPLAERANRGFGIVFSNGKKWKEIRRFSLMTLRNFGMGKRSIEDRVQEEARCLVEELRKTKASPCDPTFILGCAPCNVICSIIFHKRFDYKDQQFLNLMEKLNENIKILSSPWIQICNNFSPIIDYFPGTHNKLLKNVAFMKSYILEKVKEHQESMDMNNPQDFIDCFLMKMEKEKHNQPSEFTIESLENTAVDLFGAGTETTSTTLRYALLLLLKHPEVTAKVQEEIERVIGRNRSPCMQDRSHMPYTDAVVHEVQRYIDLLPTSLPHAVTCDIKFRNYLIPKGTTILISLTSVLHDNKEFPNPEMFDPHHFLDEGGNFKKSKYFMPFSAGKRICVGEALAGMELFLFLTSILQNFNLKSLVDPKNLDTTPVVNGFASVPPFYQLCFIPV

[24] = Fraction unbound in dog; format: ADME, Canis lupus familiaris
Cytochrome P450 1A2 = biological target: T1, Cytochrome P450 1A2 (Homo sapiens, UniProt P05177); test: Inhibition of CYP1A2; format: ADME
T1 sequence (P05177 whole entry): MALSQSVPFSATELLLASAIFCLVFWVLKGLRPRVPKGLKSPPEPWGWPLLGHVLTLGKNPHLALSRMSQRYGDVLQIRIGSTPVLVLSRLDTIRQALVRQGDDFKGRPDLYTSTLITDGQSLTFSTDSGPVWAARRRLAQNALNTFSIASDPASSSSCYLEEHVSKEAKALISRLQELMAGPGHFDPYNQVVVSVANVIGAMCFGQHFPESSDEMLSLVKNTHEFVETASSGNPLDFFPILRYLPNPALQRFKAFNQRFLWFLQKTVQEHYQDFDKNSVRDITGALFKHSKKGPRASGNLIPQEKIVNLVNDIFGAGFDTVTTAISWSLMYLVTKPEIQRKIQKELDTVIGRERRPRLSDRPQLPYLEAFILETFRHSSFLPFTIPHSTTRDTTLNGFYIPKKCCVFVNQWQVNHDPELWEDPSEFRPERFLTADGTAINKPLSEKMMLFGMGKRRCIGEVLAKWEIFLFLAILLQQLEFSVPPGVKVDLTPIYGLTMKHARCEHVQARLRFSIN

[25] = Clearance in dog plasma at 1 mg/kg, iv and 1 mg/kg, po; format: ADME, organism-based, Canis lupus familiaris
[26] = Fraction unbound in human; format: ADME
[27] = Terminal half life in human at 0.3 to 300 mg; format: ADME, organism-based; settings: in vivo, read-out: beta t1/2 (converted)
Dipeptidyl peptidase 3 = biological target: T2, Dipeptidyl peptidase 3 (Homo sapiens, UniProt Q9NY33); test: Inhibition of DPP3 in human erythrocytes; format: cell-based
T2 sequence (Q9NY33 whole entry): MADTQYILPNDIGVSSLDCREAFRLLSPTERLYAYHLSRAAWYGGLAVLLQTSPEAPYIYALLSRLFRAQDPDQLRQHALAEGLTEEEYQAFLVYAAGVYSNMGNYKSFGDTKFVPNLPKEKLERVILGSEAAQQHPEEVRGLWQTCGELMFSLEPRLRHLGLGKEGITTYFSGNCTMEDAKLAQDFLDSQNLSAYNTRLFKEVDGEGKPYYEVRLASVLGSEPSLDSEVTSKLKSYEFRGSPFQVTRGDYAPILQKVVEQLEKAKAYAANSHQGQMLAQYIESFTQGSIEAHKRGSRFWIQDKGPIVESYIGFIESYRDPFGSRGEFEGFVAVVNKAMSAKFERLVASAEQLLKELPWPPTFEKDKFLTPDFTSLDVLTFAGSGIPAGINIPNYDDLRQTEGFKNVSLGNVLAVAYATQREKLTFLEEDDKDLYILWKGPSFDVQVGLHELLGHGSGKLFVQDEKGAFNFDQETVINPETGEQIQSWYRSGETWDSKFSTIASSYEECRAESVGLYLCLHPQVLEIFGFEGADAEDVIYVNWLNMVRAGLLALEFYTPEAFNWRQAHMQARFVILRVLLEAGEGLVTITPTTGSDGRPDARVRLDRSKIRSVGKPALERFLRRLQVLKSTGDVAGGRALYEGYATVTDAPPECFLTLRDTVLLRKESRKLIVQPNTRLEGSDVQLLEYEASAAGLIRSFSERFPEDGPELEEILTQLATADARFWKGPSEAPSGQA

Prolyl endopeptidase = biological target: T3, Prolyl endopeptidase (Homo sapiens, UniProt P48147); test: Inhibition of POP
T3 sequence (P48147 whole entry): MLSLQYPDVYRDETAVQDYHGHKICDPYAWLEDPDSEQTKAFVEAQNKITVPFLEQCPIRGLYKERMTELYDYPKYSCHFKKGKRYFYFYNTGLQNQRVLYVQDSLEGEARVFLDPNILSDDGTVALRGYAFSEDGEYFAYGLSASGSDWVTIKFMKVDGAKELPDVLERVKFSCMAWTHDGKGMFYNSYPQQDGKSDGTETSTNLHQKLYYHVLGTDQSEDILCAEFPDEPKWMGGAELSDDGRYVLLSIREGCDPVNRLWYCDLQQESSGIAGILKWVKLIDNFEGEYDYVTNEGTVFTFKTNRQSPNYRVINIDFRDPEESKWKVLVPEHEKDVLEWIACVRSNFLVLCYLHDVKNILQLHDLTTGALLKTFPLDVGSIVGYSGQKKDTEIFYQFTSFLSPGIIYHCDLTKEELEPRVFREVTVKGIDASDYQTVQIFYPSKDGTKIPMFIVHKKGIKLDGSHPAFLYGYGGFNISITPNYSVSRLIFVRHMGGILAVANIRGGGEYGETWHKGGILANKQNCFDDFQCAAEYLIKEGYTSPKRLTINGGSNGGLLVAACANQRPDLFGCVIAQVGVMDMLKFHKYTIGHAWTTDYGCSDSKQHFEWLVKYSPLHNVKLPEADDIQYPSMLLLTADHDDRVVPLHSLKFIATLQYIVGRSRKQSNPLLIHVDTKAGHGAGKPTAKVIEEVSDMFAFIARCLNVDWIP

[28] = HEK293 cells that express human ERG, probe [3H]dofetilide

Sequence of hERG (KCNH2) (Q12809 whole entry): as the sequence (Q12809 whole entry) above

Structure (SMILES): O=C([C@@H]1C[C@H](N2CCN(c3ncccn3)CC2)CN1)N1C[C@@H](F)[C@H](F)C1
inhibition at 10 µM (hERG (KCNH2); hek293): -1.6%

Structure (SMILES): O=C([C@@H]1C[C@H](N2CCN(c3noc4ccccc34)CC2)CN1)N1CCC(F)(F)C1
Papp A→B [8]: 18.6 ×10⁻⁶ cm/s
inhibition at 10 µM (hERG (KCNH2); [28]): 26.7%
Papp B→A [9]: 11.2 ×10⁻⁶ cm/s

Structure (SMILES): O=C([C@@H]1C[C@H](N2CCN(c3nc4cnccc4o3)CC2)CN1)N1CCC(F)(F)C1
inhibition at 10 µM (hERG (KCNH2); [28]): 8.1%

Structure (SMILES): O=C([C@@H]1C[C@H](N2CCN(c3nc4cccnc4o3)CC2)CN1)N1CCC(F)(F)C1
inhibition at 10 µM (hERG (KCNH2); [28]): 7.4%

Now from value to compound, other results behind:

IC50 (Dipeptidyl peptidase 2): > 30 µM
IC50 (Dipeptidyl peptidase 8): > 30 µM
Structure (SMILES): O=C([C@@H]1C[C@H](N2CCN(c3ncccn3)CC2)CN1)N1CC(F)C1

Vd [1]: 1.9 L/kg
Cmax (in vivo [2]): 1820 ng/mL
half-life [3]: 2.3 h
bioavailability [4]: 93%
AUC (in vivo [5]): 3950 ng·h/mL
clearance [6]: 27 mL/min/kg
Structure (SMILES): O=C([C@@H]1C[C@H](N2CCN(c3ncccn3)CC2)CN1)N1C[C@@H](F)[C@@H](F)C1
inhibition at 10 µM (hERG (KCNH2); hek293): 7.2%
IC50 [7]: 54 µM

Vd [1]: 1.8 L/kg
Cmax (in vivo [2]): 237 ng/mL
half-life [3]: 1.5 h
Papp A→B [8]: 10.4 ×10⁻⁶ cm/s
bioavailability [4]: 20%
AUC (in vivo [5]): 276 ng·h/mL
clearance [6]: 61 mL/min/kg
Papp B→A [9]: 13.5 ×10⁻⁶ cm/s
Structure (SMILES): N#Cc1cccnc1N1CCN([C@@H]2CN[C@H](C(=O)N3CCC(F)(F)C3)C2)CC1
inhibition at 10 µM (hERG (KCNH2); [28]): -7.3%
IC50 [7]: > 10 µM

IC50 (Cytochrome P450 2D6): > 30 µM
Vd [1]: 1.9 L/kg
Cmax (in vivo [2]): 1410 ng/mL
AUC [10]: 843 ng·h/mL
IC50 (Rattus norvegicus): 1.3 ng/mL (≈ 3.55 nM)
IC50 (Cytochrome P450 2C19): > 30 µM
IC50 (Cytochrome P450 3A4): > 30 µM
fraction unbound [11]: 0.8
half-life [12]: 7.6 h
fraction unbound [13]: 0.8
Tmax [14]: 0.5 h
Vd [15]: 0.7 L/kg
Cmax [16]: 1530 ng/mL
Vd [17]: 1 L/kg
half-life [3]: 2.5 h
Cmax [18]: 517 ng/mL
half-life [19]: 7.6 h
bioavailability [20]: 95%
bioavailability [21]: 71%
AUC [22]: 7160 ng·h/mL
clearance [23]: 7.6 mL/min/kg
bioavailability [4]: 109%
AUC (in vivo [5]): 2400 ng·h/mL
clearance [6]: 38 mL/min/kg
IC50 (Cytochrome P450 2C9): > 30 µM
fraction unbound [24]: 0.8
IC50 (Cytochrome P450 1A2): > 30 µM
clearance [25]: 3.7 mL/min/kg
fraction unbound [26]: 0.8
half-life [27]: 15.1 h
IC50 (Dipeptidyl peptidase 3): > 30 µM
IC50 (Prolyl endopeptidase): > 30 µM
Structure (SMILES): O=C([C@@H]1C[C@H](N2CCN(c3ncccn3)CC2)CN1)N1CCC(F)(F)C1 [GOSOGLIPTIN]
Emax (Rattus norvegicus): 98%
inhibition at 10 µM (hERG (KCNH2); hek293): 14.9%
IC50 [7]: 126 µM

— ChEMBL document CHEMBL1138584, “(3,3-Difluoro-pyrrolidin-1-yl)-[(2S,4S)-(4-(4-pyrimidin-2-yl-piperazin-1-yl)-pyrrolidin-2-yl]-methanone: a potent, selective, orally active dipeptidyl peptidase IV inhibitor” (Bioorg Med Chem Lett, 2009)
